Here are results for 4 compounds from paper PMC3196344 (Nature medicine, 2009).

Data set [1] concerns CD4+/CD8+ thymocytes. Nature of the data set: Flow cytometry of thymocytes from dex-treated mice. The format is in vivo, BALB/c mice. Conditions: measured by a drop in this cell population over time; dex 50 mg/kg IP.
Data set [2] relates to thymocytes. Conditions: after dex treatment; cited from earlier work.
For data set [3] the following is noted: exposed during late stages of apoptosis; cited from earlier work.
The conditions of data set [4]: leading to high background signals; cited from earlier work.
The subject of data set [5] is caspase-3/7. The data set is described as follows: Caspase labeling in COLO205 tumors of Apomab-treated mice, SDS-PAGE. Type of data set: in vivo, human colorectal cancer COLO205 xenograft in nude mice. Conditions: Apomab 10 mg/kg IV; AB50-Cy5 50 nmol IV 1 h; COLO205 xenograft.
The subject of data set [6] is legumain. Nature of the data set: Legumain labeling in COLO205 tumors of Apomab-treated mice, SDS-PAGE. Type of data set: in vivo, human colorectal cancer COLO205 xenograft in nude mice. Particulars: Apomab 10 mg/kg IV; AB50-Cy5.
Data set [7] has as its system caspases-3/7. Particulars: cited from earlier work.
Data set [8] has as its system cathepsins. Particulars: cited from earlier work.
Data set [9] deals with legumain. Conditions: cited from earlier work.

On to `C[C@@H]1C[C@H]2[C@@H]3CCC4=CC(=O)C=C[C@]4(C)[C@@]3(F)[C@@H](O)C[C@]2(C)[C@@]1(O)C(=O)CO` [dexamethasone], for which the “induction of apoptosis in CD4+/CD8+ cells” value in [1] is reported as “specifically induced apoptosis in CD4+/CD8+ cells”. Further, the “TUNEL+ staining at 18 and 24 hours” value in [2] is reported as “sharp decrease”.

Take “Annexin V: protein with high affinity for phosphatidylserines exposed during the late stages of apoptosis”: the affinity for phosphatidylserines entry in data set [3] is “high affinity”. The clearance in vivo result in data set [4] is given as “slow clearance in vivo”.

In the case of “Apomab: monoclonal antibody that induces the extrinsic apoptosis pathway by binding to death receptor 5”, in [5], the “time of optimal (peak) caspase activity after Apomab” value stood at 12 h. For the same compound, the “legumain labeling over time course after Apomab” value in data set [6] is “constant throughout the time course”.

As for Asp-Glu-Val-Asp [DEVD], the “recognition by caspases-3/7” value in data set [7] is on record as “optimal”. Also, the recognition by cathepsins result in [8] is listed as “efficiently recognized”. Moreover, the recognition by legumain entry in data set [9] is listed as “efficiently recognized”.
